{"source": "patent US6313092A", "about": "“Method for increasing the electrotransport flux of polypeptides” (ALZA Corporation, priority 1998, dated 2001)", "key": {"[1]": {"assay": "Stability on incubation with stripped stratum corneum", "type": "in vitro ADME, human"}, "[2]": {"assay": "In vitro electrotransport flux of the PTH analogs", "type": "in vitro ADME, human", "settings": "retro-inverso versions, 1 mM donor pH 5.0, 100 μA cm^-2, 32° C.", "description": "In vitro electrotransport studies were carried out in multi-compartment, custom-built, small volume cells using anodic drive. 1 mM PTH in 10 mM buffer was placed in the donor compartment and 25 mM final ionic strength receptor was placed in the receptor compartment. The receptor solution was 15 mM NaCl buffered to pH 7 with 10 mM imidazole, 0.1% bovine serum albumin (BSA) as a blocking agent, Tween 20 detergent and sodium azide as a bactericide.\nHeat-stripped human cadaver stratum corneum was placed between the donor and receptor compartments with the epidermis side toward the receptor compartment. A constant DC current of […] (ie,0.1 mA/cm^2) was applied. Cells were maintained at 32° C. during the in vitro studies with receptor samples taken every 2 hours (receptor volume removed and replaced with \"fresh\" receptor at each sampling). Receptor samples were analyzed by reversed-phase HPLC.\nPeak areas of PTH receptor samples were compared to standard curves of the same analog of known concentrations run at the same time using an analytical polymeric column, at a flow rate of 1.5 mL/min with a gradient from 10-50% B in ten minutes for elution. Buffer A was 0.1% trifluroacetic acid (TFA), 1% acetonitrile; Buffer B was 0.1% TFA, 98.9% acetonitrile. Analog concentrations were converted to mass flux and plotted vs. time.\nFor the in vitro electrotransport studies, described donors contained the retro-inverso versions (ie, D-amino acid residues were used and were assembled in reverse order than usual) of the PTH analogs (1 mM) in aqueous solutions at pH 5.0. This was because PTH analogs 1 and 2 were not stable when incubated with stripped stratum corneum, probably due to proteolytic digestion by skin proteases. The fully assembled electrotransport cells were incubated at 32±0.5° C. The skin contact area available for transport was 1.27 cm^2. The donor compartment volume was 200 μL; the receptor compartment volume was 350 μL. The receptor solution was separated from the cathode by an anion exchange membrane (Ionac™, Eletrosynthesis Co., Lancaster, N.Y.). Each cell was connected to a constant current source at a standard current density of 100 μA cm^-2. The voltage drop across each cell was monitored at approximately 2-hour intervals for the duration of the experiment."}, "PTH receptor": {"molecular_target": "T1, PTH receptor (Rattus norvegicus, UniProt P25961)", "T1 sequence (P25961 27-591)": "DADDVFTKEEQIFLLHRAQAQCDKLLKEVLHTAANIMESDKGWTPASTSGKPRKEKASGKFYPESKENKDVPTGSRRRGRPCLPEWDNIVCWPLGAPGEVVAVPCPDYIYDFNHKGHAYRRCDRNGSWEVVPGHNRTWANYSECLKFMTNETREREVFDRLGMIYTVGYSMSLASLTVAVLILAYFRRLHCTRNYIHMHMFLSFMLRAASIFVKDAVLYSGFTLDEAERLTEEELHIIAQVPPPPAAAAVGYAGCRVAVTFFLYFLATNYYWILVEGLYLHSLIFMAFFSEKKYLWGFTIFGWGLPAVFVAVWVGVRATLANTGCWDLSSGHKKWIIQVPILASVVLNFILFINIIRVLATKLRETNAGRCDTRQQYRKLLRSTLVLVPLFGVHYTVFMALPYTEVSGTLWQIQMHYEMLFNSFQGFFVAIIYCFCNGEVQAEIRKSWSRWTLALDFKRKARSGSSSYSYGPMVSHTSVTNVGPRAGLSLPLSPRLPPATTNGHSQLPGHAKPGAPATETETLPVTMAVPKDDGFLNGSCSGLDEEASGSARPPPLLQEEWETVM", "assay": "PTH analog activity assay: stimulation of adenylate cyclase (cAMP by SPA) in UMR106 cells", "experimental": "PTH concentrations were determined by OD280 using an extinction coefficient of 6600 for the recombinant peptide and 5500 for the synthetic peptide. The rat osteosarcoma cell line UMR106 (ATCC CRL 1661) was used for in vitro testing of the peptide's ability to activate the PTH receptor. Activation of the PTH receptor leads to an intracellular rise in cAMP concentration.\nThe UMR106 cells were seeded at about 2.5×10^5 per well in a 48 well dish and allowed to grow to confluence. Assays were performed on cells 3-5 days postconfluence. The media (Dulbecco's modified Eagle's medium, DMEM, with fetal calf serum) was removed, and 1 mL of fresh media was applied. PTH (recombinant or synthetic) at various concentrations and 3-isobutyl-l-methyl xanthine (IBMX) at 1 mM final concentration were then added to each well of the plate, which was then incubated for 5 minutes at room temperature. The media was then removed and the cells quickly washed with ice cold PBS. The cells were then extracted twice with 1 mL of absolute ethanol. The two extractions were combined and the ethanol removed by evaporation. The extract was then redissolved in 1 mL of scintillation proximity buffer (SPA buffer) (Amersham, Arlington Heights, Ill.). The cAMP concentration was determined by assay using a scintillation proximity assay (SPA) kit available from Amersham."}}, "note": "pEC50: −log10 of the molar value. Where a SMILES comes first, the peptide text is derived from it. The star is where a group is joined. hSer(lactone) = O=C1OCC[C@@H]1N*", "data": [{"smiles": "CC[C@H](C)[C@H](NC(=O)[C@H](CCC(=O)O)NC(=O)[C@H](CO)NC(=O)[C@@H](NC(=O)[C@@H](N)CO)C(C)C)C(=O)N[C@@H](CCC(N)=O)C(=O)N[C@@H](CC(C)C)C(=O)N[C@@H](CC(C)C)C(=O)N[C@@H](Cc1c[nH]cn1)C(=O)N[C@@H](CC(N)=O)C(=O)N[C@@H](CO)C(=O)NCC(=O)N[C@@H](CCCCN)C(=O)N[C@@H](Cc1c[nH]cn1)C(=O)N[C@@H](CCCNC(=N)N)C(=O)N[C@@H](CC(N)=O)C(=O)N[C@@H](CO)C(=O)N[C@@H](CO)C(=O)N[C@@H](CCCNC(=N)N)C(=O)N[C@@H](CCCNC(=N)N)C(=O)N[C@@H](CO)C(=O)N[C@@H](CCCNC(=N)N)C(=O)N[C@@H](Cc1c[nH]c2ccccc12)C(=O)N[C@@H](CO)C(=O)N[C@@H](CCCNC(=N)N)C(=O)N[C@@H](CCCCN)C(=O)N[C@@H](CCCCN)C(=O)N[C@@H](CO)C(=O)N[C@@H](CCCCN)C(=O)N[C@@H](CC(=O)O)C(=O)N[C@H](C(=O)N[C@@H](Cc1c[nH]cn1)C(=O)N[C@@H](CC(N)=O)C(=O)N[C@@H](CO)C(=O)N[C@H]1CCOC1=O)C(C)C", "note": "[PTH analog 2] (H-SVSEIQLLHNSGKHRNSSRRSRWSRKKSKDVHNS-{hSer(lactone)})", "values": [{"measurement": "stability when incubated with stripped stratum corneum", "setting": "[1]", "result": "not stable"}, {"measurement": "Average mass flux", "setting": "[2]", "result": 4.1, "unit": "μg cm^-2 h^-1"}, {"measurement": "median mass flux", "setting": "[2]", "result": 3.2, "unit": "μg cm^-2 h^-1"}]}, {"smiles": "CC[C@H](C)[C@H](NC(=O)[C@H](CCC(=O)O)NC(=O)[C@H](CO)NC(=O)[C@@H](NC(=O)[C@@H](N)CO)C(C)C)C(=O)N[C@@H](CCC(N)=O)C(=O)N[C@@H](CC(C)C)C(=O)N[C@@H](CC(C)C)C(=O)N[C@@H](Cc1c[nH]cn1)C(=O)N[C@@H](CC(N)=O)C(=O)N[C@@H](CC(C)C)C(=O)NCC(=O)N[C@@H](CCCCN)C(=O)N[C@@H](Cc1c[nH]cn1)C(=O)N[C@@H](CCCNC(=N)N)C(=O)N[C@@H](CC(N)=O)C(=O)N[C@@H](CO)C(=O)N[C@@H](CC(C)C)C(=O)N[C@@H](CCCNC(=N)N)C(=O)N[C@@H](CCCNC(=N)N)C(=O)N[C@H](C(=O)N[C@@H](CCCNC(=N)N)C(=O)N[C@@H](Cc1c[nH]c2ccccc12)C(=O)N[C@@H](CC(C)C)C(=O)N[C@@H](CCCNC(=N)N)C(=O)N[C@@H](CCCCN)C(=O)N[C@@H](CCCCN)C(=O)N[C@@H](CC(C)C)C(=O)N[C@@H](CCCCN)C(=O)N[C@@H](CC(=O)O)C(=O)N[C@H](C(=O)N[C@@H](Cc1c[nH]cn1)C(=O)N[C@@H](CC(N)=O)C(=O)N[C@@H](Cc1ccc(O)cc1)C(=O)N[C@H]1CCOC1=O)C(C)C)C(C)C", "note": "[PTH analog 1] (H-SVSEIQLLHNLGKHRNSLRRVRWLRKKLKDVHNY-{hSer(lactone)})", "values": [{"measurement": "stability when incubated with stripped stratum corneum", "setting": "[1]", "result": "not stable"}, {"measurement": "Average mass flux", "setting": "[2]", "result": 1.4, "unit": "μg cm^-2 h^-1"}, {"measurement": "median mass flux", "setting": "[2]", "result": 0.3, "unit": "μg cm^-2 h^-1"}, {"measurement": "pEC50", "setting": "PTH receptor", "result": 9.05}]}]}
